Patent publication US10947252B2, “Inhibitors of KEAP1-Nrf2 protein-protein interaction” (Janssen Pharmaceutica NV, priority 2018, dated 2021)
pEC50, pKd: −log10 of the molar value.

Assays:
[1] = biological target: Kelch domain of human KEAP1 (321-624 aa) (Homo sapiens (Human), UniProt Q14145); test: KEAP1 KELCH ThermoFluor binding assay; conditions: KEAP Kelch […], 1,8-ANS, pH 7.0, average of results obtained, read-out: Tf Kd;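 further: Ligand-induced melting temperature shift of E. coli-expressed KEAP1 Kelch protein, Kd estimated from concentration-response curves of ΔTm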
[2] = tested on: Glo-Response ARE-luc2P HEK293 cell line; test: ARE luciferase reporter cell-based assay; conditions: Homo sapiens, HEK293, 24 h, average of results obtained;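 further: luciferase signal tracks Nrf2 activation of the ARE once compounds disrupt KEAP1-Nrf2 binding, read with One-Glo reagent, DMSO serving as low control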

Kelch domain of human KEAP1 (321-624 aa), sequence (Q14145 321-624): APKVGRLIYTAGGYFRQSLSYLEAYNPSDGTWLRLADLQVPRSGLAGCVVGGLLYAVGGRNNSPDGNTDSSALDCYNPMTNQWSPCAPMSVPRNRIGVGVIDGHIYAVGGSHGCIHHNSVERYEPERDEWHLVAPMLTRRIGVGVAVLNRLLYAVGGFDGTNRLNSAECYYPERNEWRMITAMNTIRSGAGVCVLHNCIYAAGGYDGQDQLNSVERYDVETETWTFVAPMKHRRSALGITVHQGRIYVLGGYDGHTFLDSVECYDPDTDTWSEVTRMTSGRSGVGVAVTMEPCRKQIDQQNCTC

pKd [1] | Compound | pEC50 [2]
6.14 | Cc1cnc2c(c1)S(=O)(=O)N(Cc1cc([C@H](c3ccn4c(C(F)F)nnc4c3C)C(C)(C)C(=O)O)ccc1C)CC1(CCOCC1)O2 (single isomer, unassigned) [Example 577, (*R)-3-(3-(Difluoromethyl)-8-methyl-[1,2,4]triazolo[4,3-a]pyridin-7-yl)-2,2-dimethyl-3-(4-methyl-3-((8′-methyl-1′,1′-dioxido-2,3,5,6-tetrahydrospiro[pyran-4,4′-pyrido[2,3-b][1,4,5]oxathiazepin]-2′(3′H)-yl)methyl)phenyl)propanoic Acid] | 6.11
8.79 | Cc1ccc([C@H](CC(=O)O)c2ccn3c(C(F)(F)F)nnc3c2C)cc1CN1C[C@H]2CCN2c2ncccc2S1(=O)=O (single isomer, unassigned) [Example 294, (*S)-3-(3-(((*R)-5,5-Dioxido-7,7a, 8,9-tetrahydro-6H-azeto[2,1-d]pyrido[2,3-f][1,2,5]thiadiazepin-6-yl)methyl)-4-methylphenyl)-3-(8-methyl-3-(trifluoromethyl)-[1,2,4]triazolo[4,3-a]pyridin-7-yl)propanoic Acid] | 6.57
> 9.00 | Cc1ccc([C@H](CC(=O)O)c2ccn3c(C(F)(F)F)nnc3c2C)cc1CN1C[C@H]2COCCN2c2ncc(C#N)cc2S1(=O)=O (single isomer, unassigned) [Example 196, (*S)-3-(3-(((*S)-3-Cyano-5,5-dioxido-7a,8,10,11-tetrahydro-[1,4]oxazino[3,4-d]pyrido[2,3-f][1,2,5]thiadiazepin-6(7H)-yl)methyl)-4-methylphenyl)-3-(8-methyl-3-(trifluoromethyl)-[1,2,4]triazolo[4,3-a]pyridin-7-yl)propanoic Acid] | 7.82
> 9.00 | Cc1ccc([C@@H](CC(=O)O)c2ccn3c(C(F)F)nnc3c2C)cc1CN1C[C@H]2CCCN2c2ncc(C#N)cc2S1(=O)=O (single isomer, unassigned) [Example 541, (*R)-3-(3-(((*R)-3-Cyano-5,5-dioxido-7a,8,9,10-tetrahydropyrido[2,3-f]pyrrolo[2,1-d][1,2,5]thiadiazepin-6(7H)-yl)methyl)-4-methylphenyl)-3-(3-(difluoromethyl)-8-methyl-[1,2,4]triazolo[4,3-a]pyridin-7-yl)propanoic Acid] | 6.65
> 9.00 | Cc1ncc([C@H](c2ccc3c(nnn3C3CC3)c2C)C(C)(C)C(=O)O)cc1CN1CC2(CCOCC2)Oc2ncccc2S1(=O)=O (single isomer, unassigned) [Example 44, (*S)-3-(1-Cyclopropyl-4-methyl-1H-benzo[d][1,2,3]triazol-5-yl)-3-(5-((1′,1′-dioxido-2,3,5,6-tetrahydrospiro[pyran-4,4′-pyrido[2,3-b][1,4,5]oxathiazepin]-2′(3′H)-yl)methyl)-6-methylpyridin-3-yl)-2,2-dimethylpropanoic Acid] | 7.27
6.57 | CCn1nnc2c(C)c([C@H](c3ccc(C)c(CN4CC5(CCOCC5)Oc5ncc(C)cc5S4(=O)=O)c3)C(C)(C)C(=O)O)ccc21 (single isomer, unassigned) [Example 420, (*S)-3-(1-ethyl-4-methyl-1H-benzo[d][1,2,3]triazol-5-yl)-2,2-dimethyl-3-(4-methyl-3-((8′-methyl-1′,1′-dioxido-2,3,5,6-tetrahydrospiro[pyran-4,4′-pyrido[2,3-b][1,4,5]oxathiazepin]-2′(3′H)-yl)methyl)phenyl)propanoic Acid] | 7.24
> 9.00 | CCc1nnc2c(C)c([C@@H](CC(=O)O)c3ccc(C)c(CN4C[C@H]5CCCN5c5ncccc5S4(=O)=O)c3)ccn12 (single isomer, unassigned) [Example 282, (*S)-3-(3-(((R)-5,5-dioxido-7a,8,9,10-tetrahydropyrido[2,3-f]pyrrolo[2,1-d][1,2,5]thiadiazepin-6(7H)-yl)methyl)-4-methylphenyl)-3-(3-ethyl-8-methyl-[1,2,4]triazolo[4,3-a]pyridin-7-yl)propanoic Acid] | 6.53
> 9.00 | Cc1ccc(C(c2ccn3c(C(F)(F)F)nnc3c2C)C(C)(C)C(=O)O)cc1CN1CC2(CCOCC2)Oc2nc(N[C@@H](C)CCO)ccc2S1(=O)=O (stereo partly drawn) [Example 118] | 6.49
8.89 | Cc1ccc([C@@H](CC(=O)O)c2ccn3c(C(F)(F)F)nnc3c2C)cc1CN1CC(C)(C)Oc2ncccc2S1(=O)=O (single isomer, unassigned) [Example 270, (*R)-3-(3-((4,4-Dimethyl-1,1-dioxido-3,4-dihydro-2H-pyrido[2,3-b][1,4,5]oxathiazepin-2-yl)methyl)-4-methylphenyl)-3-(8-methyl-3-(trifluoromethyl)-[1,2,4]triazolo[4,3-a]pyridin-7-yl)propanoic Acid] | 5.62
> 9.00 | Cc1ccc([C@@H](CC(=O)O)c2ccc3c(nnn3C3CC3)c2C)cc1CN1C[C@]2(C)CCCN2c2ncccc2S1(=O)=O (single isomer, unassigned) [Example 220, (*R)-3-(1-Cyclopropyl-4-methyl-1H-benzo[d][1,2,3]triazol-5-yl)-3-(4-methyl-3-(((*S)-7a-methyl-5,5-dioxido-7a,8,9,10-tetrahydropyrido[2,3-f]pyrrolo[2,1-d][1,2,5]thiadiazepin-6(7H)-yl)methyl)phenyl)propanoic Acid] | 7.21
8.64 | Cc1ccc([C@@H](CC(=O)O)c2ccn3c(C)nnc3c2)cc1CN1C[C@H]2CCCN2c2ncccc2S1(=O)=O (single isomer, unassigned) [Example 164, (*R)-3-(3-(((R)-5,5-Dioxido-7a,8,9,10-tetrahydropyrido[2,3-f]pyrrolo[2,1-d][1,2,5]thiadiazepin-6(7H)-yl)methyl)-4-methylphenyl)-3-(3-methyl-[1,2,4]triazolo[4,3-a]pyridin-7-yl)propanoic Acid] | 4.95
> 9.00 | CC[C@@H]1CN(Cc2nc([C@H](CC(=O)O)c3ccc4c(nnn4C4CC4)c3C)ccc2C)S(=O)(=O)c2cccnc2O1 (single isomer, unassigned) [Example 176, (*R)-3-(1-Cyclopropyl-4-methyl-1H-benzo[d][1,2,3]triazol-5-yl)-3-(6-(((R)-4-ethyl-1,1-dioxido-3,4-dihydro-2H-pyrido[2,3-b][1,4,5]oxathiazepin-2-yl)methyl)-5-methylpyridin-2-yl)propanoic Acid] | 7.51
> 9.00 | Cc1ccc([C@H](CC(=O)O)c2ccn3c(C(F)(F)F)nnc3c2C)cc1CN1C[C@@H]2CCCCN2c2ncc(Cl)cc2S1(=O)=O (single isomer, unassigned) [Example 192, (*S)-3-(3-(((*S)-3-Chloro-5,5-dioxido-7,7a,8,9,10,11-hexahydro-6H-dipyrido[2,1-d:2′,3′-f][1,2,5]thiadiazepin-6-yl)methyl)-4-methylphenyl)-3-(8-methyl-3-(trifluoromethyl)-[1,2,4]triazolo[4,3-a]pyridin-7-yl)propanoic Acid] | 8.85
6.63 | Cc1cc2cc([C@@H](CC(=O)O)c3ccc(C)c(CN4C[C@@H]5CCCN5c5ncccc5S4(=O)=O)c3)n(C)c2nn1 (single isomer, unassigned) [Example 438, (*S)-3-(3,7-Dimethyl-7H-pyrrolo[2,3-c]pyridazin-6-yl)-3-(3-(((S)-5,5-dioxido-7a,8,9,10-tetrahydropyrido[2,3-f]pyrrolo[2,1-d][1,2,5]thiadiazepin-6(7H)-yl)methyl)-4-methylphenyl)propanoic Acid] | < 4.70
> 9.00 | Cc1ccc([C@H](c2ccn3c(C(F)(F)F)nnc3c2C)C(C)(C)C(=O)O)cc1CN1CC2(CCOCC2)Oc2nc(N[C@@H](C)CN3CCOCC3)c(C)cc2S1(=O)=O (single isomer, unassigned) [Example 363, (*R)-2,2-Dimethyl-3-(4-methyl-3-((8′-methyl-7′-(((S-1-morpholinopropan-2-yl)amino)-1′,1′-dioxido-2,3,5,6-tetrahydrospiro[pyran-4,4′-pyrido[2,3-b][1,4,5]oxathiazepin]-2′(3′H)-yl)methyl)phenyl)-3-(8-methyl-3-(trifluoromethyl)-[1,2,4]triazolo[4,3-a]pyridine-7-yl)propanoic Acid] | 7.89
> 9.00 | Cc1ccc([C@H](c2ccn3c(C(F)(F)F)nnc3c2C)C(C)(C)C(=O)O)cc1CN1CC2(CCOCC2)Oc2nc(OCCN3CCNCC3)ccc2S1(=O)=O (single isomer, unassigned) [Example 368, (*R)-3-(3-((1′,1′-Dioxido-7′-(2-(piperazin-1-yl)ethoxy)-2,3,5,6-tetrahydrospiro[pyran-4,4′-pyrido[2,3-b][1,4,5]oxathiazepin]-2′(3′H)-yl)methyl)-4-methylphenyl)-2,2-dimethyl-3-(8-methyl-3-(trifluoromethyl)-[1,2,4]triazolo[4,3-a][pyridine-7-yl)propanoic Acid] | 6.59
> 9.00 | Cc1ccc([C@H](CC(=O)O)c2ccn3c(C(F)(F)F)nnc3c2C)nc1CN1C[C@@H]2CCCCN2c2ncc(Cl)cc2S1(=O)=O (single isomer, unassigned) [Example 521, (*R)-3-(6-(((*S)-3-Chloro-5,5-dioxido-7,7a,8,9,10,11-hexahydro-6H-dipyrido[2,1-d:2′,3′-f][1,2,5]thiadiazepin-6-yl)methyl)-5-methylpyridin-2-yl)-3-(8-methyl-3-(trifluoromethyl)-[1,2,4]triazolo[4,3-a]pyridin-7-yl)propanoic Acid] | 8.71
> 9.00 | Cc1ccc([C@H](CC(=O)O)c2ccn3c(C(F)(F)F)nnc3c2C)cc1CN1CC2(CC2)Oc2nc(NCCCO)ccc2S1(=O)=O (single isomer, unassigned) [Example 102] | 6.16
